We go through 29 compounds from patent publication US20220324909A1, “THERAPEUTIC PEPTIDES” (COHBAR, INC., priority 2019, published 2022).

Non-standard residues stand in square brackets, D forms with d. No end group written: not given here.

The test system of one test is 3T3-L1 mouse adipocytes. Put plainly: Free fatty acid levels in cultured 3T3-L1 mouse adipocytes and insulin dependence (Example 17). The note with it: isoproterenol 0.1 nM; for Free Fatty Acid Levels, Percent of Isoproterenol Control Activity No Insulin: peptide 10 μM alone, relative to isoproterenol treated cells; for Free Fatty Acid Levels, Percent of Isoproterenol Control Activity With Insulin: peptide 10 μM with 0.25 nM insulin, relative to 0.25 nM insulin treated cells. Format: cell-based. As to the method: The effect of the peptides on fatty acid metabolism can be assessed using an assay to monitor free fatty acid levels produced by cultured cells such as mouse adipocytes. […] Following 3 h incubation, conditioned medium from each well was transferred to a fresh 96-well plate. […] Absorbance values were expressed as percent control activity relative to 0.1 nM isoproterenol treated cells (no insulin) for 10 μM peptide alone or 0.25 nM insulin treated cells (with insulin) for 10 μM peptide in presence of 0.25 nM insulin. […] Data are presented as averages values from 2-3 independent experiments with each data point performed in triplicate.

The test system of the next test is H4-IIE cells. Description: Glucose production in cultured H4-IIE cells and insulin dependence. In kind it is cell-based, rat. The note with it: peptide 10 μM alone, 24 h, relative to untreated cells. As to the method:
The effect of the peptides on glucose homeostasis can be assessed using an assay to monitor glucose production by cultured cells such as rat hepatocytes. […] Following 24 h incubation, conditioned medium from each well was transferred to a fresh 96-well plate. Glucose concentrations in the medium were determined using a Glucose Assay kit (Abcam; Cambridge, Mass.) according to the manufacturer's instructions; absorbance measured using a Cytation 3 plate reader at 570 nm (BioTek, Winooski, Vt.). […] Untreated cells were used as reference for maximal glucose production. […] Insulin at 800 μM was used as a modest inhibitor glucose production. […] Data are presented as averages values from 2-4 independent experiments with each data point performed in triplicate.

For a further test, the system named is C2C12 cells. Put plainly: Glucose utilization in cultured C2C12 cells and insulin dependence. The note with it: metformin 1 mM, positive control. Format: cell-based, mouse. The source says: The effect of the peptides on glucose homeostasis can be assessed using an assay to monitor glucose utilization by cultured cells such as mouse myotubes. […] C2C12 mouse muscle cell line was purchased from Millipore Sigma (Saint Louis, Mo.). […] Three days after plating the medium was removed and with Differentiation Medium (DMEM/low glucose (1 g/L)+2% Horse Serum+antibiotics) added. […] After 5 days of differentiation, the medium was removed from myotube cultures and replaced with Assay Medium (DMEM/low glucose (1 g/L)+antibiotics). […] Following the 5 h incubation the medium was removed and fresh Assay Medium containing compounds added; 10 μM peptide in absence or presence of 5-20 nM insulin, or 1 mM metformin as a potent stimulator of glucose utilization. […] Following 22 h incubation, conditioned medium from each well was transferred to a fresh 96-well plate. Glucose concentrations in the medium were determined using a Glucose Assay kit (Abcam; Cambridge, Mass.) according to the manufacturer's instructions; absorbance measured using a Cytation 3 plate reader at 570 nm (BioTek, Winooski, Vt.). Absorbance values were expressed as percent control activity relative to untreated treated cells (no insulin) for 10 μM peptide alone or 5-20 nM insulin treated cells (with insulin) for 10 μM peptide in presence of 5-20 nM insulin. Untreated cells were used as reference for basal glucose utilization. The relative standard deviation from plate to plate of untreated control was <10%. Metformin at 1 mM was used as a potent control for increasing glucose utilization. Glucose levels for metformin (1 mM) treatment were <10% of the untreated control value. Data are presented as averages values from 2-3 independent experiments with each data point performed in triplicate.

On to 53 (RMMGMVFQSL) [compound 53], for which, in the test on 3T3-L1 mouse adipocytes, the “Free Fatty Acid Levels, Percent of Isoproterenol Control Activity No Insulin” value is recorded as 101% and the “Free Fatty Acid Levels, Percent of Isoproterenol Control Activity With Insulin” value is 81%. The “Glucose Production, Percent of Control Activity No Insulin” value in the test on H4-IIE cells worked out at 91.9%.
In the case of 61 (Ac-RRMMGMVFQSLCG[dA]) [compound 61], in the test on 3T3-L1 mouse adipocytes, the “Free Fatty Acid Levels, Percent of Isoproterenol Control Activity No Insulin” value was found to be 112% and the “Free Fatty Acid Levels, Percent of Isoproterenol Control Activity With Insulin” value is listed as 143%. The “Glucose Production, Percent of Control Activity No Insulin” value with H4-IIE cells amounted to 122.7%.
In the case of 58 (RRMMGMVFQ) [compound 58], in the test with 3T3-L1 mouse adipocytes, the “Free Fatty Acid Levels, Percent of Isoproterenol Control Activity No Insulin” value amounted to 110% and the “Free Fatty Acid Levels, Percent of Isoproterenol Control Activity With Insulin” value is recorded as 114%. In the test on H4-IIE cells, the “Glucose Production, Percent of Control Activity No Insulin” value was 114.5%.
On to 59 (RRMMGMVFQS) [compound 59], for which, in the test with 3T3-L1 mouse adipocytes, the “Free Fatty Acid Levels, Percent of Isoproterenol Control Activity No Insulin” value came to 111% and the “Free Fatty Acid Levels, Percent of Isoproterenol Control Activity With Insulin” value is listed as 114%. Further, in the test on H4-IIE cells, the “Glucose Production, Percent of Control Activity No Insulin” value came out at 114.0%.
Consider 47 (MMGMVFQS) [compound 47], for which, in the test with 3T3-L1 mouse adipocytes, the “Free Fatty Acid Levels, Percent of Isoproterenol Control Activity No Insulin” value is 101% and the “Free Fatty Acid Levels, Percent of Isoproterenol Control Activity With Insulin” value is reported as 93%. Moreover, in the test with H4-IIE cells, the “Glucose Production, Percent of Control Activity No Insulin” value is listed as 108.0%.
Regarding 38 (RRMMGMVEQSLCG[dA]) [compound 38], in the test with 3T3-L1 mouse adipocytes, the “Free Fatty Acid Levels, Percent of Isoproterenol Control Activity No Insulin” value amounted to 101% and the “Free Fatty Acid Levels, Percent of Isoproterenol Control Activity With Insulin” value was 68%. Further, the “Glucose Production, Percent of Control Activity No Insulin” value in the test on H4-IIE cells is 98.5%.
In the case of “63 (Ac-RRMMGMVFQSLCG[dA]-NH2) [compound 63]”, in the test with 3T3-L1 mouse adipocytes, the “Free Fatty Acid Levels, Percent of Isoproterenol Control Activity No Insulin” value is listed as 112% and the “Free Fatty Acid Levels, Percent of Isoproterenol Control Activity With Insulin” value amounted to 92%. For the same compound, the “Glucose Production, Percent of Control Activity No Insulin” value in the test on H4-IIE cells stood at 107.5%.
For the compound 54 (RMMGMVFQSLCG[dA]) [compound 54], in the test with 3T3-L1 mouse adipocytes, the “Free Fatty Acid Levels, Percent of Isoproterenol Control Activity No Insulin” value was 102% and the “Free Fatty Acid Levels, Percent of Isoproterenol Control Activity With Insulin” value is 75%. For the same compound, the “Glucose Production, Percent of Control Activity No Insulin” value in the test with H4-IIE cells is listed as 112.8%.
The matching figures for 41 (RRLLGLVFQSLEG[dA]) [compound 41]: 97%, 73% and 122.7%.
The matching figures for “35 (RXLLGLVFQSLCGA; (2)..(2) Xaa is Aib (alpha-aminoisobutyric acid); (14)..(14) D-Ala) [compound 35]”: 101%, 112% and 98.1%.
As for 40 (RRLLGLVEQSLCG[dA]) [compound 40], in the test with 3T3-L1 mouse adipocytes, the “Free Fatty Acid Levels, Percent of Isoproterenol Control Activity No Insulin” value came out at 101% and the “Free Fatty Acid Levels, Percent of Isoproterenol Control Activity With Insulin” value was determined as 76%. Moreover, in the test on H4-IIE cells, the “Glucose Production, Percent of Control Activity No Insulin” value came out at 109.6%.
The matching figures for 46 (MMGMVFQ) [compound 46]: 98%, 104% and 105.0%.
Turning to 56 (RRMMGMV) [compound 56], in the test with 3T3-L1 mouse adipocytes, the “Free Fatty Acid Levels, Percent of Isoproterenol Control Activity No Insulin” value came out at 99% and the “Free Fatty Acid Levels, Percent of Isoproterenol Control Activity With Insulin” value stood at 94%. For the same compound, the “Glucose Production, Percent of Control Activity No Insulin” value with H4-IIE cells is given as 97.1%.
As to 49 (MMGMVFQSLCG[dA]) [compound 49], in the test with 3T3-L1 mouse adipocytes, the “Free Fatty Acid Levels, Percent of Isoproterenol Control Activity No Insulin” value worked out at 101% and the “Free Fatty Acid Levels, Percent of Isoproterenol Control Activity With Insulin” value was 103%. In addition, the “Glucose Production, Percent of Control Activity No Insulin” value in the test on H4-IIE cells is 120.1%.
The matching figures for `CC[C@H](C)[C@H](NC(=O)CNC(=O)[C@@H](NC(=O)[C@@H](NC(=O)[C@H](CCCNC(=N)N)NC(=O)[C@@H](N)CCCNC(=N)N)[C@@H](C)CC)[C@@H](C)CC)C(=O)N[C@H](C(=O)N[C@@H](Cc1ccccc1)C(=O)N[C@@H](CCC(N)=O)C(=O)N[C@@H](CO)C(=O)N[C@@H](CC(C)C)C(=O)N[C@@H](CS)C(=O)NCC(=O)N[C@H](C)C(=O)O)C(C)C` [compound 43]: 103%, 91% and 115.8%.
Take 51 (RMMGMVFQ) [compound 51]: in the test with 3T3-L1 mouse adipocytes, the “Free Fatty Acid Levels, Percent of Isoproterenol Control Activity No Insulin” value stood at 99% and the “Free Fatty Acid Levels, Percent of Isoproterenol Control Activity With Insulin” value turned out to be 79%. Further, the “Glucose Production, Percent of Control Activity No Insulin” value with H4-IIE cells came out at 106.1%.
As for 57 (RRMMGMVF) [compound 57], in the test with 3T3-L1 mouse adipocytes, the “Free Fatty Acid Levels, Percent of Isoproterenol Control Activity No Insulin” value turned out to be 96% and the “Free Fatty Acid Levels, Percent of Isoproterenol Control Activity With Insulin” value worked out at 87%. Further, the “Glucose Production, Percent of Control Activity No Insulin” value in the test with H4-IIE cells worked out at 98.3%.
Consider “34 (RXMMGMVFQSLCGA; (2)..(2) Xaa is Aib (alpha-aminoisobutyric acid); (14)..(14) D-Ala) [compound 34]”, for which, in the test with 3T3-L1 mouse adipocytes, the “Free Fatty Acid Levels, Percent of Isoproterenol Control Activity No Insulin” value turned out to be 104% and the “Free Fatty Acid Levels, Percent of Isoproterenol Control Activity With Insulin” value worked out at 122%. For the same compound, the “Glucose Production, Percent of Control Activity No Insulin” value with H4-IIE cells amounted to 96.9%.
The matching figures for 52 (RMMGMVFQS) [compound 52]: 102%, 79% and 108.4%.
Consider 60 (RRMMGMVFQSL) [compound 60], for which, in the test with 3T3-L1 mouse adipocytes, the “Free Fatty Acid Levels, Percent of Isoproterenol Control Activity No Insulin” value is 110% and the “Free Fatty Acid Levels, Percent of Isoproterenol Control Activity With Insulin” value amounted to 101%. Further, the “Glucose Production, Percent of Control Activity No Insulin” value with H4-IIE cells is 115.9%.
For the compound `CN(C)C(=N)N=C(N)N` [metformin, reference compound], the “Glucose levels, % of untreated control value” in the test with C2C12 cells was less than 10%.
Take 45 (MMGMVF) [compound 45]: in the test on 3T3-L1 mouse adipocytes, the “Free Fatty Acid Levels, Percent of Isoproterenol Control Activity No Insulin” value is reported as 105% and the “Free Fatty Acid Levels, Percent of Isoproterenol Control Activity With Insulin” value is given as 89%. Also, in the test on H4-IIE cells, the “Glucose Production, Percent of Control Activity No Insulin” value is reported as 106.9%.
With 55 (RRMMGM) [compound 55], in the test with 3T3-L1 mouse adipocytes, the “Free Fatty Acid Levels, Percent of Isoproterenol Control Activity No Insulin” value stood at 100% and the “Free Fatty Acid Levels, Percent of Isoproterenol Control Activity With Insulin” value is given as 90%. Also, the “Glucose Production, Percent of Control Activity No Insulin” value in the test on H4-IIE cells worked out at 92.6%.
The matching figures for “62 (RRMMGMVFQSLCG[dA]-NH2) [compound 62]”: 112%, 109% and 105.6%.
For 44 (MMGMV) [compound 44], in the test with 3T3-L1 mouse adipocytes, the “Free Fatty Acid Levels, Percent of Isoproterenol Control Activity No Insulin” value was 103% and the “Free Fatty Acid Levels, Percent of Isoproterenol Control Activity With Insulin” value came out at 96%. For the same compound, in the test with H4-IIE cells, the “Glucose Production, Percent of Control Activity No Insulin” value amounted to 98.8%.
Turning to 33 (RRLLGLVFQSLCG[dA]) [compound 33], in the test with 3T3-L1 mouse adipocytes, the “Free Fatty Acid Levels, Percent of Isoproterenol Control Activity No Insulin” value worked out at 98% and the “Free Fatty Acid Levels, Percent of Isoproterenol Control Activity With Insulin” value was 80%. In addition, in the test with H4-IIE cells, the “Glucose Production, Percent of Control Activity No Insulin” value is 113.8%.
In the case of 48 (MMGMVFQSL) [compound 48], in the test with 3T3-L1 mouse adipocytes, the “Free Fatty Acid Levels, Percent of Isoproterenol Control Activity No Insulin” value is recorded as 92% and the “Free Fatty Acid Levels, Percent of Isoproterenol Control Activity With Insulin” value is reported as 93%. For the same compound, the “Glucose Production, Percent of Control Activity No Insulin” value in the test with H4-IIE cells was 110.0%.
The matching figures for 50 (RMMGMVF) [compound 50]: 103%, 101% and 99.8%.
As to 39 (RRMMGMVFQSLEG[dA]) [compound 39], in the test with 3T3-L1 mouse adipocytes, the “Free Fatty Acid Levels, Percent of Isoproterenol Control Activity No Insulin” value was 97% and the “Free Fatty Acid Levels, Percent of Isoproterenol Control Activity With Insulin” value came to 67%. The “Glucose Production, Percent of Control Activity No Insulin” value in the test with H4-IIE cells is recorded as 103.9%.
